Source: patent US11331299B2, “Medicinal use of serrulatane diterpenes” (The University of Sydney, priority 2016, dated 2022)
Read-outs that look alike come from different tables or passages of the source.

What was measured:
[1] = target: T1, enzymes (Bioprint panel) (Bos taurus, UniProt P11541+P23439); experiment: biochemical; details: PDE6 (non-selective); 10 μM; read-out: % Inhibition of Control Values
T1 construct: other: PDE6 (non-selective); 10 μM

[2] = target: enzymes (Bioprint panel) (Bos taurus, UniProt P80457); experiment: biochemical; details: xanthine oxidase/superoxide O2- scavenging; 10 μM; read-out: % Inhibition of Control Values
[3] = target: enzymes (Bioprint panel) (Homo sapiens, UniProt O76074); experiment: biochemical; details: PDE5 (h) (non-selective); 10 μM; read-out: % Inhibition of Control Values
[4] = target: enzymes (Bioprint panel) (Homo sapiens, UniProt P00519); experiment: biochemical; details: Abl kinase (h); 10 μM; read-out: % Inhibition of Control Values
[5] = target: enzymes (Bioprint panel) (Homo sapiens, UniProt P03956); experiment: biochemical; details: MMP-1 (h); 10 μM; read-out: % Inhibition of Control Values
[6] = target: enzymes (Bioprint panel) (Homo sapiens, UniProt P17948); experiment: biochemical; details: FLT-1 kinase (h) (VEGFR1); 10 μM; read-out: % Inhibition of Control Values
[7] = target: enzymes (Bioprint panel) (Homo sapiens, UniProt P22303); experiment: biochemical; details: acetylcholinesterase (h); 10 μM; read-out: % Inhibition of Control Values
[8] = target: enzymes (Bioprint panel) (Homo sapiens, UniProt P28482); experiment: biochemical; details: ERK2 (h) (P42mapk); 10 μM; read-out: % Inhibition of Control Values
[9] = target: enzymes (Bioprint panel) (Homo sapiens, UniProt P42574); experiment: biochemical; details: caspase-3 (h); 10 μM; read-out: % Inhibition of Control Values
[10] = target: enzymes (Bioprint panel) (Homo sapiens, UniProt P56817); experiment: biochemical; details: BACE-1 (h) (beta -secretase); 10 μM; read-out: % Inhibition of Control Values
[11] = target: enzymes (Bioprint panel) (Homo sapiens, UniProt Q13370); experiment: biochemical; details: PDE3B (h); 10 μM; read-out: % Inhibition of Control Values
[12] = target: enzymes (Bioprint panel) (Homo sapiens, UniProt Q16539); experiment: biochemical; details: p38alpha kinase (h); 10 μM; read-out: % Inhibition of Control Values
[13] = target: enzymes (Bioprint panel) (Homo sapiens, UniProt Q9BYF1); experiment: biochemical; details: ACE-2 (h); 10 μM; read-out: % Inhibition of Control Values
[14] = target: enzymes (Bioprint panel) (Mus musculus, UniProt P29477); experiment: biochemical; details: inducible NOS; 10 μM; read-out: % Inhibition of Control Values
[15] = tested on: enzymes (Bioprint panel); experiment: biochemical; details: COMT (catechol- O-methyl transferase); 10 μM
[16] = target: COX1 (h) (Homo sapiens, UniProt P23219); experiment: Bioprint enzyme assay; assay type: biochemical
[17] = target: hDNMT3a (Homo sapiens, UniProt Q9Y6K1); details: read-out: Reference: IC50; cited from earlier work
[18] = target: T2, EHMT1 (h) (Homo sapiens, UniProt Q9H9B1); details: read-out: Reference: IC50; cited from earlier work
T2 sequence (Q9H9B1 1-1298): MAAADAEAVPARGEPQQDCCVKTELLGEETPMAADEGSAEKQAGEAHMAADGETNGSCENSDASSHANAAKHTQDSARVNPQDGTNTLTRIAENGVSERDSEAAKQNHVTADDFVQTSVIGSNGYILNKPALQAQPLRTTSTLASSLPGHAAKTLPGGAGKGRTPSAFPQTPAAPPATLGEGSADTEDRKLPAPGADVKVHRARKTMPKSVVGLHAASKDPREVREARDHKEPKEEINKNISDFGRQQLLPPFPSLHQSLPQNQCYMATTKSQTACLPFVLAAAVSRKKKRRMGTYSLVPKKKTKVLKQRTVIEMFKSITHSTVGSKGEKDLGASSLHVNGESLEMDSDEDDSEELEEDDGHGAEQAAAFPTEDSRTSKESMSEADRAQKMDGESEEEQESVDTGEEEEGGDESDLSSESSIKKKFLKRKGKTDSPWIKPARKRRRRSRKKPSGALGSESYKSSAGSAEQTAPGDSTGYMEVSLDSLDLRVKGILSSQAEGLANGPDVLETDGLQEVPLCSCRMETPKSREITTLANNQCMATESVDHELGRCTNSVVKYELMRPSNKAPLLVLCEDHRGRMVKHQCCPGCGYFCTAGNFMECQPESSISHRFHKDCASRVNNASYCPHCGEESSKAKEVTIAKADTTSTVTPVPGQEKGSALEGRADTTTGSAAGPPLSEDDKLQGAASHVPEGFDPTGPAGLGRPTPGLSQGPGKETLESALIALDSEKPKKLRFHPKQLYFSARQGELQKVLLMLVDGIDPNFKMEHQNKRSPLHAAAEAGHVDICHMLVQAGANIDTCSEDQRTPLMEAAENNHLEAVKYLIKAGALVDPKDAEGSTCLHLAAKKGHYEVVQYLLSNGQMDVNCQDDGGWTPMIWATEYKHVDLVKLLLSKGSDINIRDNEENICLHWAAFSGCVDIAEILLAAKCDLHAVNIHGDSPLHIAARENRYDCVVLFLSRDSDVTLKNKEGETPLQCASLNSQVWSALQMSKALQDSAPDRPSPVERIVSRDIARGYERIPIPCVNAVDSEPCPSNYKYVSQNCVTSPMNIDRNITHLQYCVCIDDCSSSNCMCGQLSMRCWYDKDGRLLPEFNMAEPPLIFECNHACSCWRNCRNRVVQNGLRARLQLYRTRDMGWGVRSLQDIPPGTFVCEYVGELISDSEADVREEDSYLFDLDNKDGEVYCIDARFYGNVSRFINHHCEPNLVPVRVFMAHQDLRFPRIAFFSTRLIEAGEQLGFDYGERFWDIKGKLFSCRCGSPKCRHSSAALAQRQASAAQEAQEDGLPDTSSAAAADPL

COX1 (h), sequence (P23219 24-599): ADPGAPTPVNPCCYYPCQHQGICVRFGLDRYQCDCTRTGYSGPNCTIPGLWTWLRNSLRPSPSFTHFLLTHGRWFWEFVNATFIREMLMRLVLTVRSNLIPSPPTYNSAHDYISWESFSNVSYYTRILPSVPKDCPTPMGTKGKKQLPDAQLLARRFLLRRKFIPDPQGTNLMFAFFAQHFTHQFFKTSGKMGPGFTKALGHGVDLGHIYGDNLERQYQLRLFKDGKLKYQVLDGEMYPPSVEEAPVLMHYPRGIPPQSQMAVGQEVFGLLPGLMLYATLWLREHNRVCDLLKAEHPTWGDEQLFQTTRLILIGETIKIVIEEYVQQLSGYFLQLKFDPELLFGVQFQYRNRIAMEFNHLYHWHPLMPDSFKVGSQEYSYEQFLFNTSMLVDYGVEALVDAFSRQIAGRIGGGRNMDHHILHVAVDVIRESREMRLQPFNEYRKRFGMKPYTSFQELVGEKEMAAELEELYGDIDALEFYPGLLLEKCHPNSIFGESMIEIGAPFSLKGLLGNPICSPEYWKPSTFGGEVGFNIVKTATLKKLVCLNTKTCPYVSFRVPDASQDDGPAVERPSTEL
T1 sequence (P23439 2-850): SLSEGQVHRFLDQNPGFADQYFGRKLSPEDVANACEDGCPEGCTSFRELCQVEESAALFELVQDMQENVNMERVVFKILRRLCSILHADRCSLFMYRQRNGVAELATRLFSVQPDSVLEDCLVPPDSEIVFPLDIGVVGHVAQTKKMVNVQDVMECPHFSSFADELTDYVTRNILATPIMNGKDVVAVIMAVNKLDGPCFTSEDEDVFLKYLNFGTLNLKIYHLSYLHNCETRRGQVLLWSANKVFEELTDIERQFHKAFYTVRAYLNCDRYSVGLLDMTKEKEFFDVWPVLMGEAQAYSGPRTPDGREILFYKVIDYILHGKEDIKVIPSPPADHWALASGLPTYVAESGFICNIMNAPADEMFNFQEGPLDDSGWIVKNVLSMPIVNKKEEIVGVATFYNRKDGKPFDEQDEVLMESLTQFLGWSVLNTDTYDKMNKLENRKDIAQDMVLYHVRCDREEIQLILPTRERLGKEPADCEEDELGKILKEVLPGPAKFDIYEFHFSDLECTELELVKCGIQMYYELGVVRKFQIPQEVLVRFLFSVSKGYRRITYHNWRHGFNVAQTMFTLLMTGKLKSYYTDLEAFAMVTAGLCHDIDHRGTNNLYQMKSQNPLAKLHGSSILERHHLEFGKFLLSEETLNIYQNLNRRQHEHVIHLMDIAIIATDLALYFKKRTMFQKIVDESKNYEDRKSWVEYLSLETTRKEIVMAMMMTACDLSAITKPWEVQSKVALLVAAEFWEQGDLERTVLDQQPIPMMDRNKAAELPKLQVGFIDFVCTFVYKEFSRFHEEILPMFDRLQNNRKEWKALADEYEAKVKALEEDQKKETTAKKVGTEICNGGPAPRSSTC
T1 sequence (P11541 2-856): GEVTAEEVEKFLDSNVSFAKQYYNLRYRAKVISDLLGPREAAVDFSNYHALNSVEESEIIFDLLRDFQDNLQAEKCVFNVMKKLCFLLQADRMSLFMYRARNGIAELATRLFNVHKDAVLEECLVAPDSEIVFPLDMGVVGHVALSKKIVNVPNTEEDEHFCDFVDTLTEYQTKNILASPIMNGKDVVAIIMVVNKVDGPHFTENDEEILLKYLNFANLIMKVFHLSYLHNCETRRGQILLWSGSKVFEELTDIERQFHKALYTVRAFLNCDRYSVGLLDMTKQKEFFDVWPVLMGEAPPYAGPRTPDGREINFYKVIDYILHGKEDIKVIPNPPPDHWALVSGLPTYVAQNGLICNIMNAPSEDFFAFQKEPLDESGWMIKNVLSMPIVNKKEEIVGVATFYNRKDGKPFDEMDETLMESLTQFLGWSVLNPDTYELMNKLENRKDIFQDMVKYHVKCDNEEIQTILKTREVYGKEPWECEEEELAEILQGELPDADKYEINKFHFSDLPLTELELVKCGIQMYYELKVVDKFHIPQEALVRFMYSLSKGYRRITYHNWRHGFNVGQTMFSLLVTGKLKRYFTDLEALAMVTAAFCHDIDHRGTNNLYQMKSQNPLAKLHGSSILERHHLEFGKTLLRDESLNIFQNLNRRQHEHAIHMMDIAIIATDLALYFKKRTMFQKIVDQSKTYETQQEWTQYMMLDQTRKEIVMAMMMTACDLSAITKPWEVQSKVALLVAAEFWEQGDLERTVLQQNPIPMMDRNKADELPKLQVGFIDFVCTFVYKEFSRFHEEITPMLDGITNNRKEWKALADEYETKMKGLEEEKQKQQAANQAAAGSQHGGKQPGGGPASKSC
T1 sequence (P04972 whole entry, further chain): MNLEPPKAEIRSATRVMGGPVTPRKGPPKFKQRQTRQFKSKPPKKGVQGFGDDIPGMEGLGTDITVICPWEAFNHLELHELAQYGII
enzymes (Bioprint panel) (Homo sapiens, UniProt P56817), sequence (P56817 46-501): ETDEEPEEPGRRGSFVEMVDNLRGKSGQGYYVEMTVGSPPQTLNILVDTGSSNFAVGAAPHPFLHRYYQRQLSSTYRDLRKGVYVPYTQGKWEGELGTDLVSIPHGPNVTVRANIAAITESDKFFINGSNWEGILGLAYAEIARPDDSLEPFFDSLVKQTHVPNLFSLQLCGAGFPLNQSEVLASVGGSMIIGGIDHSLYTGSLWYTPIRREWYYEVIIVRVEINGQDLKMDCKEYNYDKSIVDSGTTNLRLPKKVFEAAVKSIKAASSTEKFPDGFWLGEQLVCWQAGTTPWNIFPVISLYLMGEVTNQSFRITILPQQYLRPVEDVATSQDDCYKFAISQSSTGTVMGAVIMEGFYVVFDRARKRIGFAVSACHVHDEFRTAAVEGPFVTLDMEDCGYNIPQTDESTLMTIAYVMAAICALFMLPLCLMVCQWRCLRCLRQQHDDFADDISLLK
enzymes (Bioprint panel) (Mus musculus, UniProt P29477), sequence (P29477 whole entry): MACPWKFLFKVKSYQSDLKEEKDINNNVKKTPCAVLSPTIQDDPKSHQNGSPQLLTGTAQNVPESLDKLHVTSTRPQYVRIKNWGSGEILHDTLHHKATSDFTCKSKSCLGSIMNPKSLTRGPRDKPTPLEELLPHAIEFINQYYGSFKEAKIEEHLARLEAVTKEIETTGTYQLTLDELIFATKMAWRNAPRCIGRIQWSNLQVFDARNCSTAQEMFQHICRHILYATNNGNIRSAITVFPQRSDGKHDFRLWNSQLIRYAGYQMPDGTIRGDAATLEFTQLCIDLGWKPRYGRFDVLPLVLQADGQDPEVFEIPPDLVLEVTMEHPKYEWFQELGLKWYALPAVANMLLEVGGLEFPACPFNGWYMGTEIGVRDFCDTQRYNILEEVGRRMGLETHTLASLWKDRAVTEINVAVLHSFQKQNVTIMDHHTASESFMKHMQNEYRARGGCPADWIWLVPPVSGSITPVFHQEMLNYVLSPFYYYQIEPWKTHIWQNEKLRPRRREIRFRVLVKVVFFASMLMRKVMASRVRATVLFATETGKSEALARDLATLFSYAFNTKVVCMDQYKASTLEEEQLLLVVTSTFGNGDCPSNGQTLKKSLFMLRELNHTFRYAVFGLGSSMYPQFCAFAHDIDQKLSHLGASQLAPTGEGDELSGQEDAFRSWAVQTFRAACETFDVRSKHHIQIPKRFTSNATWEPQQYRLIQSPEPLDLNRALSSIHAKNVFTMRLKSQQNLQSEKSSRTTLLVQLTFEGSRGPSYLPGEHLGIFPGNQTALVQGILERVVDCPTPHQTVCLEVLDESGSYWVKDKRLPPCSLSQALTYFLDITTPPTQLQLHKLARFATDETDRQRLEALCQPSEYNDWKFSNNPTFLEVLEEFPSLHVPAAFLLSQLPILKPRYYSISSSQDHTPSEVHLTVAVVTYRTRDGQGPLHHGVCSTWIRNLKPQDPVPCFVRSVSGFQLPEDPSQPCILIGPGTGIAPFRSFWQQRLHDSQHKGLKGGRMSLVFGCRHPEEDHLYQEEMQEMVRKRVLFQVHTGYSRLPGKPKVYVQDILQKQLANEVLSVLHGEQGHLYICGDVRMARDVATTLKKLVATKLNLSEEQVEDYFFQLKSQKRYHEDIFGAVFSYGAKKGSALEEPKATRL
hDNMT3a, sequence (Q9Y6K1 whole entry, looked up): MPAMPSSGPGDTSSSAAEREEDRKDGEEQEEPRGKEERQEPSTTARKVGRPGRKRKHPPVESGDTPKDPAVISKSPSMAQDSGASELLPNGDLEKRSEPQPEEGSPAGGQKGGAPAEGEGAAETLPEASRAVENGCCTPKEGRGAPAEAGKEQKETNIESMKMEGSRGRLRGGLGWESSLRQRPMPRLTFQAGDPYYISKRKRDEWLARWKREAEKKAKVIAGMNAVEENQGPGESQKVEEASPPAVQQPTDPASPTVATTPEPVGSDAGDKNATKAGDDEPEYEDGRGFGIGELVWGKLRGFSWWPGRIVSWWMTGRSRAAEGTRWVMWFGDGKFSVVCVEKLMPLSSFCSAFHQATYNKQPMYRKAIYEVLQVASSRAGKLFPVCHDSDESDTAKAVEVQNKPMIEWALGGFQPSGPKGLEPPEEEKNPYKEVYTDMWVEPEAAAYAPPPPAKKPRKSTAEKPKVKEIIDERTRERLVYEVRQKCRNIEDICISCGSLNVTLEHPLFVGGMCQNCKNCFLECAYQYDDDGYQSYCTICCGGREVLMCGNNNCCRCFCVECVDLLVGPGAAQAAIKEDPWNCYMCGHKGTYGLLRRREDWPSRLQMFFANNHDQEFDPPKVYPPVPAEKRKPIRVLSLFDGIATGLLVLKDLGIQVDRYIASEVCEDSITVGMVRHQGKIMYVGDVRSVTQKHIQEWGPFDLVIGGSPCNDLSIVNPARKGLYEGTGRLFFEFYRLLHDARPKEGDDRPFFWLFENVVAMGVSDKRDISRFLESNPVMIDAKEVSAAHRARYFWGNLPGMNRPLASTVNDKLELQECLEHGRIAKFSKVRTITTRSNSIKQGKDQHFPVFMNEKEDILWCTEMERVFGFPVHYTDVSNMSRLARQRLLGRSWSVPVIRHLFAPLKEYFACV

Compound	inhibition at 10 µM [1] [%]	inhibition at 10 µM [2] [%]	inhibition at 10 µM [3] [%]	inhibition at 10 µM [4] [%]	inhibition at 10 µM [5] [%]	inhibition at 10 µM [6] [%]	inhibition at 10 µM [7] [%]	inhibition at 10 µM [8] [%]	inhibition at 10 µM [9] [%]	inhibition at 10 µM [10] [%]	inhibition at 10 µM [11] [%]	inhibition at 10 µM [12] [%]	inhibition at 10 µM [13] [%]	inhibition at 10 µM [14] [%]	% Inhibition of Control Values [15] [%]	inhibition at 10 µM ([16]; COX1(h), read-out: % Inhibition of Control Values) [%]	inhibition at 10 µM ([16]; read-out: % inhibition of control enzyme activity) [%]	IC50 [17] [nM]	IC50 [18] [nM]
CC(C)=CCC[C@H](CO)[C@@H]1CC[C@@H](C)c2c1cc(C)c(O)c2O [Compound 1, 7,8,18-trihydroxyserrulat-14-ene]	4	-140	11	14	-2	36	32	6	-3	0	-3	4	-3	-1	−6	81	81		
Nc1ncnc2c1ncn2[C@@H]1O[C@H](CSCC[C@H](N)C(=O)O)[C@@H](O)[C@H]1O [SAH]																		52	180
